Reference: US10730858B2, “Lactam, cyclic urea and carbamate, and triazolone derivatives as potent and selective rock inhibitors” (BRISTOL-MYERS SQUIBB COMPANY, priority 2016, dated 2020)
pIC50: −log10 of the molar value. Like-named read-outs stand apart in the source and are kept apart here.

What was measured:
rat stroke model = details: in vivo; cited from earlier work
[1] = tested on: IL-1 beta-induced coronary stenosis; details: long term treatment; cited from earlier work
neointimal formation = details: rats; cited from earlier work
[2] = tested on: congestive heart failure in Dahl salt-sensitive rats; details: rat, in vivo; cited from earlier work
[3] = tested on: rat models of hypertension; details: cited from earlier work
ROCK2 = ROCK2 (Homo sapiens, UniProt O75116); assay: ROCK2 assay (Caliper LABCHIP peptide phosphorylation, kinase inhibition); format: biochemical; details: 5 μM ATP, 1.5 μM peptide substrate
Outline: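 Rho kinase reaction in 20 mM HEPES pH 7.5, 20 mM MgCl2, 0.015% Brij-35, 4 mM DTT with 5 μM ATP and 1.5 μM FITC-labelled peptide substrate (FITC-AHA-AKRRRLSSLRA-OH); DMSO final <2%. EDTA-stopped; phosphorylated and non-phosphorylated peptide separated by microfluidic mobility shift. IC50 from dose-response curve fit.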

ROCK2, sequence (O75116 whole entry, species assumed): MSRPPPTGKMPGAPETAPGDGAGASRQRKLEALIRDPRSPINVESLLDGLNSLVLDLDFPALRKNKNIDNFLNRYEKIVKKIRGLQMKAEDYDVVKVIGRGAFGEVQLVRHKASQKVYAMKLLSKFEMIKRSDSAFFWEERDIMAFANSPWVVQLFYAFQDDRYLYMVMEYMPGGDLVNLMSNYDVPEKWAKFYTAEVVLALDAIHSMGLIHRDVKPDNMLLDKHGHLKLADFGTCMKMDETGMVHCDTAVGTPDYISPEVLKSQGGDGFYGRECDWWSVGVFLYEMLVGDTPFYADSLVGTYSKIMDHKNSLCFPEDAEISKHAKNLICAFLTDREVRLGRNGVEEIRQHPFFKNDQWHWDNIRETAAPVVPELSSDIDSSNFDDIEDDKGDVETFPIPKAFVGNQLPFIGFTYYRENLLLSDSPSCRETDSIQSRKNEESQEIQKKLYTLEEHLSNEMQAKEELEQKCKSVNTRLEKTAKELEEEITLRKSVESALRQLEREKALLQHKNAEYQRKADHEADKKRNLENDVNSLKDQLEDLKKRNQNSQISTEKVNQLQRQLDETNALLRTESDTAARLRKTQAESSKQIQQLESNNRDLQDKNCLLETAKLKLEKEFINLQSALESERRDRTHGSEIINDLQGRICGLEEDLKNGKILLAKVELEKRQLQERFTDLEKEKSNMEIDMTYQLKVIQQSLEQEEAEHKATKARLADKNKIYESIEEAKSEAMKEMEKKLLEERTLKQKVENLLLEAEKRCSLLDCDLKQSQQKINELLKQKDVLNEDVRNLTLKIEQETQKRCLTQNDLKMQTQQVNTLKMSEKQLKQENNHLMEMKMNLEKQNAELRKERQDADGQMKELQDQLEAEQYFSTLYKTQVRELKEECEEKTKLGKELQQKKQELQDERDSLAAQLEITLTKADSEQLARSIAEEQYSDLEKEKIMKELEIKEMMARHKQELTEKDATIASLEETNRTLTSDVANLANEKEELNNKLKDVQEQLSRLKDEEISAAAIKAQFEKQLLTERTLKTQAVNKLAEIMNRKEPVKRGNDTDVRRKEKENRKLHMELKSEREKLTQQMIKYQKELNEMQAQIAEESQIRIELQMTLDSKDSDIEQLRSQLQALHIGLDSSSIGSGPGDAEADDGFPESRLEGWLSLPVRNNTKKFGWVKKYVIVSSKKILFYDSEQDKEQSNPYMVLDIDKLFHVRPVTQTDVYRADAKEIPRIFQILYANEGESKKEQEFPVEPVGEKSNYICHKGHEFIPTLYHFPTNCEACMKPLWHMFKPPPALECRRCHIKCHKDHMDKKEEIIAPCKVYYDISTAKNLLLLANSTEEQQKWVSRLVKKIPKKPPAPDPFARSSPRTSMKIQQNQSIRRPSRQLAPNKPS

Compound: O=S(=O)(c1cccc2cnccc12)N1CCCNCC1 [fasudil]
- infarct size and neurologic deficit (rat stroke model): reduce both the infarct size and neurologic deficit
- coronary constrictive remodeling [1]: promote a regression of coronary constrictive remodeling
- coronary stenosis [1]: progressively reduce coronary stenosis

Compound: C[C@@H](N)[C@H]1CC[C@H](C(=O)Nc2ccncc2)CC1 [Example Y-27632, Y-27632]
- neointimal formation (neointimal formation): inhibited neointimal formation
- ventricular hypertrophy, fibrosis and function [2]: improve ventricular hypertrophy, fibrosis and function
- blood pressure ([3]; control rats): only a minor effect
- blood pressure ([3]; spontaneously hypertensive rat, renal hypertensive rat and deoxycortisone acetate salt hypertensive rat models): significantly decrease blood pressure

Compound: O=C1C(Nc2ccccc2)CCN1c1ccc(-c2n[nH]c(=O)c3ccccc23)cc1 (stereo not drawn) [Example 27, 4-{4-[2-oxo-3-(phenylamino)pyrrolidin-1-yl]phenyl}-1,2-dihydrophthalazin-1-one]
- pIC50 (ROCK2): 7.00 to 8.00

Compound: COc1ccc(F)c(OC2CCN(c3ccc(-c4n[nH]c(=O)c5ccccc45)cc3)C2=O)c1 (stereo not drawn) [Example 87, 4-{4-[3-(2-fluoro-5-methoxyphenoxy)-2-oxopyrrolidin-1-yl]phenyl}-1,2-dihydrophthalazin-1-one]
- pIC50 (ROCK2): 7.00 to 8.00

Compound: O=C1OC(c2ccc(F)cc2)CN1c1ccc(-c2n[nH]c(=O)c3ccccc23)cc1 (stereo not drawn) [Example 19, 4-{4-[5-(4-fluorophenyl)-2-oxo-1,3-oxazolidin-3-yl]phenyl}-1,2-dihydrophthalazin-1-one]
- pIC50 (ROCK2): 5.70 to 6.30

Compound: O=C(NCC1CN(c2ccc(-c3n[nH]c(=O)c4ccccc34)cc2)C(=O)O1)c1ccccc1 (stereo not drawn) [Example 18, N-({2-oxo-3-[4-(4-oxo-3,4-dihydrophthalazin-1-yl)phenyl]-1,3-oxazolidin-5-yl}methyl)benzamide]
- pIC50 (ROCK2): 6.30 to 7.00

Compound: CS(=O)(=O)c1ccc(CC2CN(c3ccc(-c4n[nH]c(=O)c5ccccc45)cc3)C(=O)O2)cc1 (stereo not drawn) [Example 20, 4-(4-{5-[(4-methanesulfonylphenyl)methyl]-2-oxo-1,3-oxazolidin-3-yl}phenyl)-1,2-dihydrophthalazin-1-one]
- pIC50 (ROCK2): 6.30 to 7.00
